Measurements taken from US20150125863A1, “CXCL5 AS A MARKER OF HORMONE ESCAPE IN PROSTATE CANCER” (Institut National de la Sante Recherche Medicale (INSERM), priority 2010, published 2015).

Assays:
CWR-R1 cells = test: In vitro proliferation of CWR-R1 cells; format: cell-based; conditions: CXCL5 1 or 50 ng/ml with 10^-5 M bicalutamide, 5 days (FIG. 6B)
Protocol: CWR-R1 cells were cultured in whole fetal calf serum (FCS), in the absence or in the presence of […] of bicalutamide. CXCL5 RNA levels were measured by real-time PCR. […] Results represent the mean±SD of 3 independent experiments. B. CXCL5 enhances the proliferation of CWR-R1 cells both in the absence and in the presence of the anti-androgen bicalutamide. CWR-R1 cells were cultured in FCS. Some cells were treated with 10^-5 M bicalutamide. The cells were either treated with Ethanol vehicle (C) or with CXCL5 (1 or 50 ng/ml). Proliferation was quantified 5 days after treatment by counting the cells.
2.5×10^4 cells per well were seeded in triplicate in 24-well culture plates in complete growth media previously described. Cell numbers were determined every two days for 6 days by counting with a malassez slide or by measuring of luciferase activity. For proliferation in complete fetal calf serum, cells were maintained in […] with RPMI 1640. To test the effects of androgens, cells were maintained in phenol-red free RPMI 1640 medium supplemented with 10% FCS.

[1] = tested on: CXCL5 expression in PC-3 cells; test: Blocking experiments with shCXCL5, CXCL5 levels by Elisa in PC-3 cells; format: cell-based; conditions: PC-3 cells transfected with shCXCL5 vector, compared to Non-Target shRNA Control Vector, after 4 days, Elisa (FIG. 9B)
Protocol: (§1) A. PC-3 cells were grown for 4 days and either non treated (Control) or treated with goat serum (diluted 1/20) as isotype control antibody (Isotype) or with 0.5 μg/ml of CXCL5 antibody (CXCL5 Ab). Medium with or without treatment was changed at day 2. Results represent the mean of luciferase activity±SD after 4 days of 3 independent experiments. B, C. PC-3 cells were transfected with Non-Target shRNA Control (shCt) or shCXCL5 vector. 4 days later, the medium was collected and CXCL5 levels were measured by Elisa (B). The number of cells was counted on day 4 (C). A representative experiment is shown here.
(§2) 10^5 PC-3 cells plated in 6 well plated in 10% FCS with RPMI 1640 were transfected with 4 μg of Non-Target shRNA Control Vector (ShC002, Mission Library, Sigma-Aldrich) or shCXCL5 vector (SHCLND-NM_002994-TRCN0000057934NM_002994.3-304s1c1TRC1, Sequence SEQ ID NO: 6: […] Mission Library, Sigma-Aldrich) using Jet-PEI® protocol in each well. 8 h after transfection medium was changed. CXCL5 secretion was quantified 48 h later in conditioned medium by ELISA (Duoset, DY254, R&D system). Cells were counted 4 days after transfection using malassez slide.

PC-3 cells = test: Blocking experiments with shCXCL5, PC-3 cell proliferation; format: cell-based; conditions: PC-3 cells transfected with shCXCL5 vector, cells counted on day 4 (FIG. 9C)
Protocol: as §1, §2

[2] = tested on: CXCL5 RNA levels in CWR-R1 cells; test: CXCL5 RNA levels by real-time PCR in CWR-R1 cells; format: cell-based; conditions: CDFCS + 10^-8 M Dihydrotestosterone vs CDFCS (FIG. 5A)
Text: (§3) Results represent the mean±SD of 3 independent experiments.
as §3

[3] = tested on: CXCL5 RNA levels in LNCaP cells; conditions: CDFCS + 10^-8 M Dihydrotestosterone vs CDFCS (FIG. 5B)
Protocol: CXCL5 RNA levels were measured by real-time PCR. CXCL5 levels in the presence of FCS were set to 1. Results represent the mean±SD of 3 independent experiments.
CWR-R1 and LNCaP cells were maintained in RPMI 1640 with Glutamax (Invitrogen, Carlsbad, USA), completed with 10% Foetal Calf Serum (FCS) and gentamycin. For androgen stimulations, cells were weaned off steroids before any experiment by culturing them in phenol red-free RPMI 1640 supplemented with 10% CDFCS (charcoal dextran-treated FCS) for 4 days.
Total RNA was prepared using TriReagent (Euromedex, Souffelweyersheim, France). The amount of RNA was estimated by spectrophotometry at 260 nm. Complementary DNAs (cDNA) were obtained from reverse transcription (RT) of 3 μg of total RNA in 13 μl of water RNase free. 1 μl of random hexanucleotides as primers (pd(N)6, 50 mM) in the presence of 1 μl of dNTPs (250 mM; Gibco BRL) were added to the RNA and incubated 5 minutes at 70° C. After, 5 μl of mix containing reverse transcriptase (1 μl) and reverse transcriptase buffer 5× (4 μl) were added to the RNA solution and incubated 1 h at 42° C. Real-time PCR quantification was then performed using a SYBR Green approach (Light Cycler; Roche) as previously described (Lucas et al. 2003 Biochem Biophys Res Commun 309:1011-1016). For each sample, CXCL5 mRNA levels were normalized with RS9 mRNA levels (reference gene).

recombinant CXCL5: recombinant C-X-C motif chemokine 5 added to CWR-R1 cells
effect on the inhibition of proliferation by bicalutamide (CWR-R1 cells): partially alleviate

shCXCL5: shRNA vector against CXCL5, SEQ ID NO: 6, Mission Library, Sigma-Aldrich (DNA CCGGGATCAGTAATCTGCAAGTGTTCTCGAGAACACTTGCAGATTACTGATCTTTTTG)
CXCL5 expression [1]: strongly reduced
inhibition of proliferation of PC-3 cells (PC-3 cells): more than 10 fold

C[C@]12CCC(=O)C[C@@H]1CC[C@@H]1[C@@H]2CC[C@]2(C)[C@@H](O)CC[C@@H]12 [dihydrotestosterone]
effect on levels of CXCL5 RNA [2]: partially reduced
effect on levels of CXCL5 RNA [3]: partially reduced
